Measurements as given in patent publication US20150105252A1, “SUBSTITUTED PYRAZOLES AS HERBICIDES” (E I DU PONT DE NEMOURS AND COMPANY, priority 2013, published 2015).

Assays:
velvetleaf = assay: Test C preemergence; format: in vivo, Abutilon theophrasti; conditions: preemergence
Outline: (§1)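 Scores of 0 (no effect) to 100 (complete control) were assigned by eye after 13–15 days, comparing treated pots with controls. Soil-applied (preemergence) treatments went onto seeds in loam and sand; foliar (postemergence) treatments onto 1- to 4-leaf plants in peat medium.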

foxtail, giant = assay: Test C postemergence; format: in vivo, Setaria faberii
Outline: as §1

oilseed rape = assay: Test C postemergence; format: in vivo, Brassica napus
Outline: as §1

barnyardgrass = assay: Test C preemergence; format: in vivo, Echinochloa crus-galli; conditions: preemergence
Outline: as §1

crabgrass, large = assay: Test A preemergence; format: in vivo, Digitaria sanguinalis; conditions: preemergence
Outline: (§2)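 Scoring was visual, on a scale where 100 means complete control and 0 means no effect, comparing treated with untreated plants around 10 days post-application. Compounds in surfactant-containing non-phytotoxic solvent were sprayed onto soil preemergence or onto one- to two-leaf seedlings (2–10 cm) postemergence.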

corn = assay: Test C postemergence; format: in vivo, Zea mays
Outline: as §1

nutsedge, yellow = assay: Test C postemergence; format: in vivo, Cyperus esculentus
Outline: as §1

ragweed [1] = assay: Test C preemergence; format: in vivo, Ambrosia elation; conditions: preemergence
Outline: as §1

ragweed [2] = assay: Test C postemergence; format: in vivo, Ambrosia elation; conditions: for Plant response rating, Ragweed: postemergence
Outline: as §1

johnsongrass = assay: Test C postemergence; format: in vivo, Sorghum halepense
Outline: as §1

soybean [3] = assay: Test C preemergence; format: in vivo, Glycine max; conditions: preemergence
Outline: as §1

waterhemp = assay: Test C preemergence; format: in vivo, Amaranthus rudis; conditions: preemergence
Outline: as §1

soybean [4] = assay: Test C postemergence; format: in vivo, Glycine max
Outline: as §1

morningglory = assay: Test A postemergence; format: in vivo, Ipomoea spp.
Outline: as §2

ryegrass, Italian = assay: Test C postemergence; format: in vivo, Lolium multiflorum; conditions: for Plant response rating, Ryegrass, Italian: postemergence
Outline: as §1

wheat = assay: Test A preemergence; format: in vivo, Triticum aestivum; conditions: preemergence
Outline: as §2

[5] = 31 g ai/ha, visual rating, scale 0 to 100 (0 no effect, 100 complete control), 13 to 15 days
[6] = 62 g ai/ha, scale 0 to 100 (0 no effect, 100 complete control), 13 to 15 days
[7] = 125 g ai/ha, 13 to 15 days, scale 0 to 100, 0 = no effect, 100 = complete control
[8] = 250 g ai/ha, scale 0 to 100, 0 is no effect, 100 is complete control
[9] = Postemergence, 31 g ai/ha, visually evaluated after 13 to 15 days
[10] = postemergence, 62 g ai/ha, scale 0 to 100
[11] = postemergence, 250 g ai/ha, scale 0 to 100 (0 no effect, 100 complete control)
[12] = postemergence, 125 g ai/ha, scale 0 to 100, 0 no effect, 100 complete control
[13] = 125 g ai/ha, visual injury, 0 to 100 scale, approx. 10 days
[14] = 500 g ai/ha, visual injury after approx. 10 days, 0 to 100 scale (0 no effect, 100 complete control)
[15] = 250 g ai/ha, scale 0 to 100 (0 no effect, 100 complete control)
[16] = 125 g ai/ha, scale 0 to 100, 0 no effect, 100 complete control

## CCc1cc(C(=O)NC(C)C)nn1Cc1ccnc(C(F)(F)F)c1 [Compound 139]
velvetleaf; [5]
  Velvetleaf plant response rating: 0
velvetleaf; [6]
  Velvetleaf plant response rating: 10
velvetleaf; [7]
  Plant response rating, Velvetleaf: 95
velvetleaf; [8]
  Velvetleaf plant response rating: 100
foxtail, giant; [9]
  Plant response rating (scale of 0 to 100 where 0 is no effect and 100 is complete control), Foxtail, Giant: 5
foxtail, giant; [10]
  Foxtail, Giant plant response rating: 5
foxtail, giant; [11]
  Plant response rating, Foxtail, Giant: 65
foxtail, giant; [12]
  Plant response rating, Foxtail, Giant: 10
Oilseed rape; [9]
  Plant response rating (scale of 0 to 100 where 0 is no effect and 100 is complete control), Oilseed Rape: 20
Oilseed rape; [10]
  Oilseed Rape plant response rating: 45
Oilseed rape; [11]
  Plant response rating, Oilseed Rape: 50
Oilseed rape; [12]
  Plant response rating, Oilseed Rape: 50
barnyardgrass; 31 g ai/ha, scale 0 to 100 (0 no effect, 100 complete control), 13 to 15 days
  Barnyardgrass plant response rating: 40
barnyardgrass; [6]
  Barnyardgrass plant response rating: 98
barnyardgrass; [7]
  Plant response rating, Barnyardgrass: 100
barnyardgrass; [8]
  Barnyardgrass plant response rating: 100
crabgrass, large; [13]
  Crabgrass, Large plant response rating: 100
crabgrass, large; [14]
  Crabgrass, Large plant response rating: 100
corn; [9]
  Plant response rating (scale of 0 to 100 where 0 is no effect and 100 is complete control), Corn: 5
corn; [10]
  Corn plant response rating: 10
corn; [11]
  Plant response rating, Corn: 20
corn; [12]
  Plant response rating, Corn: 15
nutsedge, yellow; [9]
  Plant response rating (scale of 0 to 100 where 0 is no effect and 100 is complete control), Nutsedge, Yellow: 5
nutsedge, yellow; [10]
  Nutsedge, Yellow plant response rating: 5
nutsedge, yellow; [11]
  Plant response rating, Nutsedge, Yellow: 5
nutsedge, yellow; [12]
  Plant response rating, Nutsedge, Yellow: 5
Ragweed [1]; [5]
  Ragweed plant response rating: 15
Ragweed [1]; [6]
  Ragweed plant response rating: 75
Ragweed [1]; [7]
  Plant response rating, Ragweed: 90
Ragweed [1]; [8]
  Ragweed plant response rating: 95
Ragweed [2]; [9]
  Plant response rating (scale of 0 to 100 where 0 is no effect and 100 is complete control), Ragweed: 35
Ragweed [2]; [15]
  Plant response rating, Ragweed: 25
Ragweed [2]; [16]
  Plant response rating, Ragweed: 35
johnsongrass; [9]
  Plant response rating (scale of 0 to 100 where 0 is no effect and 100 is complete control), Johnsongrass: 5
johnsongrass; [10]
  Johnsongrass plant response rating: 5
johnsongrass; [11]
  Plant response rating, Johnsongrass: 20
johnsongrass; [12]
  Plant response rating, Johnsongrass: 10
Soybean [3]; [5]
  Soybean plant response rating: 5
Soybean [3]; [6]
  Soybean plant response rating: 5
Soybean [3]; [7]
  Plant response rating, Soybean: 30
Soybean [3]; [8]
  Soybean plant response rating: 60
waterhemp; [5]
  Waterhemp plant response rating: 85
waterhemp; [6]
  Waterhemp plant response rating: 100
waterhemp; [7]
  Plant response rating, Waterhemp: 100
waterhemp; [8]
  Waterhemp plant response rating: 100
Soybean [4]; [9]
  Plant response rating (scale of 0 to 100 where 0 is no effect and 100 is complete control), Soybean: 15
Soybean [4]; [11]
  Plant response rating, Soybean: 85
Soybean [4]; [12]
  Soybean plant response rating: 55
morningglory; Postemergence, 500 g ai/ha, 0 to 100 scale (0 no effect, 100 complete control)
  Morningglory plant response rating: 100
morningglory; postemergence, 125 g ai/ha, about 10 days, visual rating on 0 to 100 scale (0 no effect, 100 complete control)
  Morningglory plant response rating: 60
ryegrass, Italian; [9]
  Plant response rating (scale of 0 to 100 where 0 is no effect and 100 is complete control), Ryegrass, Italian: 0
ryegrass, Italian; [15]
  Plant response rating, Ryegrass, Italian: 5
ryegrass, Italian; [16]
  Plant response rating, Ryegrass, Italian: 10
wheat; [13]
  Wheat plant response rating: 50
wheat; [14]
  Wheat plant response rating: 100
